From ChEMBL document CHEMBL1201862, “PubChem BioAssay data set” (2004)
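Method: 48-hour compound exposure of cells in 96-well plates, five concentrations, linear interpolation of endpoints. GI50: concentration for 50% inhibition of growth.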 Active and inactive are the calls of the source. Cut-off read from the data, not from the text of the source: active = GI50 up to about 1.1 µM and inactive = higher.

How the values were obtained:
Test in all cases: NCI-60 cell line screen, 48 h
786-0 = system: 786-0
A498 = system: A498
A549 = system: A549
ACHN = system: ACHN
BT-549 = system: BT-549
CAKI-1 = system: CAKI-1
CCRF-CEM = system: CCRF-CEM
COLO 205 = system: COLO 205
DU-145 = system: DU-145
EKVX = system: EKVX
HCC 2998 = system: HCC 2998
HCT-116 = system: HCT-116
HCT-15 = system: HCT-15
HL-60 = system: HL-60
HOP-62 = system: HOP-62
HOP-92 = system: HOP-92
HT-29 = system: HT-29
Hs-578T = system: Hs-578T
IGROV-1 = system: IGROV-1
K562 = system: K562
KM12 = system: KM12
M14 = system: M14
MCF7 = system: MCF7
MDA-MB-231 = system: MDA-MB-231
MDA-MB-435 = system: MDA-MB-435
MDA-N = system: MDA-N
MOLT-4 = system: MOLT-4
Malme-3M = system: Malme-3M
NCI-H226 = system: NCI-H226
NCI-H23 = system: NCI-H23
NCI-H460 = system: NCI-H460
NCI-H522 = system: NCI-H522
NCI/ADR-RES = system: NCI/ADR-RES
OVCAR-3 = system: OVCAR-3
OVCAR-4 = system: OVCAR-4
OVCAR-5 = system: OVCAR-5
OVCAR-8 = system: OVCAR-8
PC-3 = system: PC-3
RPMI-8226 = system: RPMI-8226
RXF 393 = system: RXF 393
SF-268 = system: SF-268
SF-295 = system: SF-295
SF-539 = system: SF-539
SK-MEL-2 = system: SK-MEL-2
SK-MEL-5 = system: SK-MEL-5
SK-OV-3 = system: SK-OV-3
SN12C = system: SN12C
SNB-19 = system: SNB-19
SNB-75 = system: SNB-75
SR = system: SR
SW-620 = system: SW-620
TK-10 = system: TK-10
U-251 = system: U-251
UACC-257 = system: UACC-257
UACC-62 = system: UACC-62
UO-31 = system: UO-31
LOX IMVI = system: LOX IMVI
SK-MEL-28 = system: SK-MEL-28
T47D = system: T47D

COc1ccc(CCn2cnc3ccccc32)cc1
GI50 (786-0): > 100 µM (inactive)
GI50 (A498): > 100 µM (inactive)
GI50 (A549): > 100 µM (inactive)
GI50 (ACHN): > 100 µM (inactive)
GI50 (BT-549): > 100 µM (inactive)
GI50 (CAKI-1): > 100 µM (inactive)
GI50 (CCRF-CEM): > 100 µM (inactive)
GI50 (COLO 205): > 100 µM (inactive)
GI50 (DU-145): > 100 µM (inactive)
GI50 (EKVX): > 100 µM (inactive)
GI50 (HCC 2998): > 100 µM (inactive)
GI50 (HCT-116): > 100 µM (inactive)
GI50 (HCT-15): > 100 µM
GI50 (HL-60): > 100 µM (inactive)
GI50 (HOP-62): > 100 µM (inactive)
GI50 (HOP-92): > 100 µM (inactive)
GI50 (HT-29): > 100 µM (inactive)
GI50 (Hs-578T): > 100 µM (inactive)
GI50 (IGROV-1): > 100 µM (inactive)
GI50 (K562): > 100 µM (inactive)
GI50 (KM12): > 100 µM (inactive)
GI50 (M14): > 100 µM (inactive)
GI50 (MCF7): > 100 µM (inactive)
GI50 (MDA-MB-231): > 100 µM (inactive)
GI50 (MDA-MB-435): > 100 µM (inactive)
GI50 (MDA-N): > 100 µM (inactive)
GI50 (MOLT-4): > 100 µM (inactive)
GI50 (Malme-3M): > 100 µM (inactive)
GI50 (NCI-H226): > 100 µM (inactive)
GI50 (NCI-H23): > 100 µM (inactive)
GI50 (NCI-H460): > 100 µM (inactive)
GI50 (NCI-H522): > 100 µM (inactive)
GI50 (NCI/ADR-RES): > 100 µM (inactive)
GI50 (OVCAR-3): > 100 µM (inactive)
GI50 (OVCAR-4): > 100 µM (inactive)
GI50 (OVCAR-5): > 100 µM (inactive)
GI50 (OVCAR-8): > 100 µM (inactive)
GI50 (PC-3): > 100 µM (inactive)
GI50 (RPMI-8226): > 100 µM (inactive)
GI50 (RXF 393): > 100 µM (inactive)
GI50 (SF-268): > 100 µM (inactive)
GI50 (SF-295): > 100 µM (inactive)
GI50 (SF-539): > 100 µM (inactive)
GI50 (SK-MEL-2): > 100 µM (inactive)
GI50 (SK-MEL-5): > 100 µM (inactive)
GI50 (SK-OV-3): > 100 µM (inactive)
GI50 (SN12C): > 100 µM (inactive)
GI50 (SNB-19): > 100 µM (inactive)
GI50 (SNB-75): > 100 µM (inactive)
GI50 (SR): > 100 µM (inactive)
GI50 (SW-620): > 100 µM (inactive)
GI50 (TK-10): > 100 µM (inactive)
GI50 (U-251): > 100 µM (inactive)
GI50 (UACC-257): > 100 µM (inactive)
GI50 (UACC-62): > 100 µM (inactive)
GI50 (UO-31): > 100 µM (inactive)

C[Si](C)(OCCS(=O)(=O)O)C1S(=O)(=O)OCCOS1(=O)=O
GI50 (786-0): 36.1 µM (inactive)
GI50 (A498): > 100 µM (inactive)
GI50 (ACHN): 35.9 µM (inactive)
GI50 (BT-549): 27.4 µM (inactive)
GI50 (CAKI-1): 27.7 µM (inactive)
GI50 (CCRF-CEM): 58.1 µM (inactive)
GI50 (COLO 205): > 100 µM (inactive)
GI50 (DU-145): 80.9 µM (inactive)
GI50 (EKVX): > 100 µM (inactive)
GI50 (HCC 2998): 35.5 µM (inactive)
GI50 (HCT-116): 67.1 µM (inactive)
GI50 (HCT-15): 67.5 µM
GI50 (HL-60): 27.5 µM (inactive)
GI50 (HOP-62): 56.4 µM (inactive)
GI50 (HOP-92): 23.8 µM (inactive)
GI50 (HT-29): > 100 µM (inactive)
GI50 (IGROV-1): > 100 µM (inactive)
GI50 (K562): 70 µM (inactive)
GI50 (KM12): 91.6 µM (inactive)
GI50 (LOX IMVI): 21.2 µM (inactive)
GI50 (M14): 48.2 µM (inactive)
GI50 (MCF7): 36.6 µM (inactive)
GI50 (MDA-MB-231): > 100 µM (inactive)
GI50 (MDA-MB-435): 43.5 µM (inactive)
GI50 (MDA-N): 92 µM (inactive)
GI50 (MOLT-4): 30.3 µM (inactive)
GI50 (Malme-3M): > 100 µM (inactive)
GI50 (NCI-H226): 64.9 µM (inactive)
GI50 (NCI-H23): 53.8 µM (inactive)
GI50 (NCI-H460): 31.7 µM (inactive)
GI50 (NCI-H522): 68.1 µM (inactive)
GI50 (NCI/ADR-RES): 45.4 µM (inactive)
GI50 (OVCAR-3): > 100 µM (inactive)
GI50 (OVCAR-4): > 100 µM (inactive)
GI50 (OVCAR-5): > 100 µM (inactive)
GI50 (OVCAR-8): 86.3 µM (inactive)
GI50 (PC-3): 93.5 µM (inactive)
GI50 (RPMI-8226): > 100 µM (inactive)
GI50 (RXF 393): 21.7 µM (inactive)
GI50 (SF-268): 24 µM (inactive)
GI50 (SF-295): 4.86 µM (inactive)
GI50 (SF-539): 23.9 µM (inactive)
GI50 (SK-MEL-28): > 100 µM (inactive)
GI50 (SK-MEL-5): 49.5 µM (inactive)
GI50 (SK-OV-3): 79.4 µM (inactive)
GI50 (SN12C): > 100 µM (inactive)
GI50 (SNB-19): 36.8 µM (inactive)
GI50 (SNB-75): 20.5 µM (inactive)
GI50 (SR): 38.4 µM (inactive)
GI50 (SW-620): 0.495 µM (active)
GI50 (T47D): 36.6 µM (inactive)
GI50 (TK-10): > 100 µM (inactive)
GI50 (U-251): 21.8 µM (inactive)
GI50 (UACC-257): > 100 µM (inactive)
GI50 (UACC-62): 13.7 µM (inactive)
GI50 (UO-31): 58.6 µM (inactive)

CC(=O)C1C(=O)C(=O)N(c2ccc(Cl)c(Cl)c2)C1=O (stereo not given)
GI50 (786-0): > 100 µM (inactive)
GI50 (A549): > 100 µM (inactive)
GI50 (ACHN): > 100 µM (inactive)
GI50 (BT-549): > 100 µM (inactive)
GI50 (CAKI-1): > 100 µM (inactive)
GI50 (COLO 205): > 100 µM (inactive)
GI50 (DU-145): > 100 µM (inactive)
GI50 (EKVX): > 100 µM (inactive)
GI50 (HCC 2998): > 100 µM (inactive)
GI50 (HCT-116): > 100 µM (inactive)
GI50 (HCT-15): > 100 µM
GI50 (HL-60): > 100 µM (inactive)
GI50 (HOP-62): > 100 µM (inactive)
GI50 (HOP-92): > 100 µM (inactive)
GI50 (HT-29): > 100 µM (inactive)
GI50 (IGROV-1): > 100 µM (inactive)
GI50 (KM12): > 100 µM (inactive)
GI50 (LOX IMVI): > 100 µM (inactive)
GI50 (M14): > 100 µM (inactive)
GI50 (MCF7): > 100 µM (inactive)
GI50 (MDA-MB-231): > 100 µM (inactive)
GI50 (MDA-MB-435): > 100 µM (inactive)
GI50 (MDA-N): > 100 µM (inactive)
GI50 (MOLT-4): > 100 µM (inactive)
GI50 (NCI-H226): > 100 µM (inactive)
GI50 (NCI-H23): > 100 µM (inactive)
GI50 (NCI-H460): > 100 µM (inactive)
GI50 (NCI/ADR-RES): > 100 µM (inactive)
GI50 (OVCAR-3): > 100 µM (inactive)
GI50 (OVCAR-5): > 100 µM (inactive)
GI50 (OVCAR-8): > 100 µM (inactive)
GI50 (PC-3): > 100 µM (inactive)
GI50 (SF-295): > 100 µM (inactive)
GI50 (SF-539): > 100 µM (inactive)
GI50 (SK-MEL-28): > 100 µM (inactive)
GI50 (SK-MEL-2): > 100 µM (inactive)
GI50 (SK-MEL-5): > 100 µM (inactive)
GI50 (SK-OV-3): > 100 µM (inactive)
GI50 (SN12C): > 100 µM (inactive)
GI50 (SNB-19): > 100 µM (inactive)
GI50 (SNB-75): > 100 µM (inactive)
GI50 (SW-620): > 100 µM (inactive)
GI50 (T47D): > 100 µM (inactive)
GI50 (TK-10): > 100 µM (inactive)
GI50 (U-251): > 100 µM (inactive)
GI50 (UACC-257): > 100 µM (inactive)
GI50 (UACC-62): > 100 µM (inactive)
GI50 (UO-31): 99.3 µM (inactive)
